Source: patent US12448389B2, “BRM targeting compounds and associated methods of use” (Prelude Therapeutics Incorporated, priority 2020, dated 2025)

Key:
[1] = target: T1, SMARCA2-HiBiT (Homo sapiens, UniProt P51531); experiment: SMARCA2 HiBiT degradation assay in HeLa cells; assay type: cell-based; settings: 18 hours incubation; for DC50: read-out: HeLa_HiBit-SM2 DC50; for Dmax: HeLa, read-out: HeLa-HiBit-SM2 Dmax (%)
T1 construct: SMARCA2-HiBiT knock-in Hela monoclonal cell (CS302366); host or cells: HeLa monoclonal knock-in line (CRISPR HiBiT knock-in at the endogenous locus, heterozygous)
T1 sequence (P51531 whole entry): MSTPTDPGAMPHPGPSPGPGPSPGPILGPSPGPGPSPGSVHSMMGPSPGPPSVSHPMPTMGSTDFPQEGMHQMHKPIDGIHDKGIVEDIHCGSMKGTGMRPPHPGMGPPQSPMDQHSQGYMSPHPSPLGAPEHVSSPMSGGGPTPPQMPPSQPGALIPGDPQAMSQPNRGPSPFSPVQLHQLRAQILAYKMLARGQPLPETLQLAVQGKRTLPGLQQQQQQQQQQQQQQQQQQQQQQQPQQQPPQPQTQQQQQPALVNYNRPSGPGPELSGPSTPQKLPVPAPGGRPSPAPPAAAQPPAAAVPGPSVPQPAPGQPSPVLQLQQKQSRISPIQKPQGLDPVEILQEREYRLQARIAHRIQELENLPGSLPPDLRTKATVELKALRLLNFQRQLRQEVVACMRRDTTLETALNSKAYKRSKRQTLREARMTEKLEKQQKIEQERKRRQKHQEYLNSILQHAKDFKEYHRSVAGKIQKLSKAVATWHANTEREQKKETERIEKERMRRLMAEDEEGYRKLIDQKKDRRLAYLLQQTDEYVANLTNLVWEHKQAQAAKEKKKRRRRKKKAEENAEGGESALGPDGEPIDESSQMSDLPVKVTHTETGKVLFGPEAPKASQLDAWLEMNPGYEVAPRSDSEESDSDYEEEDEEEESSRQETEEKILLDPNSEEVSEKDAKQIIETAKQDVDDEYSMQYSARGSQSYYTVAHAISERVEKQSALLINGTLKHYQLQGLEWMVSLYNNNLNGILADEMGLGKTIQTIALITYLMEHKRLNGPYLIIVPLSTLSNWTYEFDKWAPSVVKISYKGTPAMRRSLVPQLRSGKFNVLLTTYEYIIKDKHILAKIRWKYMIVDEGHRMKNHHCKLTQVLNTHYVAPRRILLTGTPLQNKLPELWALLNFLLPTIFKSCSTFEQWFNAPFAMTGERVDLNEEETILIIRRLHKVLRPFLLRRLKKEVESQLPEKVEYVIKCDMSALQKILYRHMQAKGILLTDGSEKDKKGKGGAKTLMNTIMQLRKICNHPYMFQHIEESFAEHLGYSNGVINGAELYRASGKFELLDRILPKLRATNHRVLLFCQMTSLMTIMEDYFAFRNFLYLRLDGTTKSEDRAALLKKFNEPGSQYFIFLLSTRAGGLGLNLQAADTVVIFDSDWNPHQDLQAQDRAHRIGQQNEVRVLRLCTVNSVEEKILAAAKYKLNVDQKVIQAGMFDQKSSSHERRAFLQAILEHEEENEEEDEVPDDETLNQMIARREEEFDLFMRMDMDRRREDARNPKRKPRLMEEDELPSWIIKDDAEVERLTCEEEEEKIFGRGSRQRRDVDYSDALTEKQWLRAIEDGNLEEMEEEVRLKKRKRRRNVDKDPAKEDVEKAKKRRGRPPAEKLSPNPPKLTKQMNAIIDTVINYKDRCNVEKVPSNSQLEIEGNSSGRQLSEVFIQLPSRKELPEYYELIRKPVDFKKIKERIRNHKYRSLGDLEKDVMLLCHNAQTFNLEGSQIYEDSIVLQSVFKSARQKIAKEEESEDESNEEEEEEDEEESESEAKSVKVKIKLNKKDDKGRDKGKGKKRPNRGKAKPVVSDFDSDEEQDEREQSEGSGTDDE
Method in brief: (§1)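 HeLa monoclonal lines with heterozygous HiBiT knock-in were seeded at 2500 cells/well in EMEM with 10% FBS and treated with compound for 18 h at 37 °C. Remaining tagged protein was measured by Nano-Glo HiBiT lytic luminescence after 30–60 min at RT, and values came from curve fitting.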

[2] = target: T2, SMARCA4-HiBiT (Homo sapiens, UniProt P51532); experiment: SMARCA4 HiBiT degradation assay in HeLa cells; assay type: cell-based; settings: 18 hours incubation; for DC50: read-out: HeLa-HiBit-SM4 DC50; for Dmax: HeLa, read-out: HeLa-HiBit-SM4 Dmax (%)
T2 construct: SMARCA4-HiBiT knock-in Hela monoclonal cell (CS3023226); host or cells: HeLa monoclonal knock-in line (CRISPR HiBiT knock-in at the endogenous locus, heterozygous)
T2 sequence (P51532 whole entry): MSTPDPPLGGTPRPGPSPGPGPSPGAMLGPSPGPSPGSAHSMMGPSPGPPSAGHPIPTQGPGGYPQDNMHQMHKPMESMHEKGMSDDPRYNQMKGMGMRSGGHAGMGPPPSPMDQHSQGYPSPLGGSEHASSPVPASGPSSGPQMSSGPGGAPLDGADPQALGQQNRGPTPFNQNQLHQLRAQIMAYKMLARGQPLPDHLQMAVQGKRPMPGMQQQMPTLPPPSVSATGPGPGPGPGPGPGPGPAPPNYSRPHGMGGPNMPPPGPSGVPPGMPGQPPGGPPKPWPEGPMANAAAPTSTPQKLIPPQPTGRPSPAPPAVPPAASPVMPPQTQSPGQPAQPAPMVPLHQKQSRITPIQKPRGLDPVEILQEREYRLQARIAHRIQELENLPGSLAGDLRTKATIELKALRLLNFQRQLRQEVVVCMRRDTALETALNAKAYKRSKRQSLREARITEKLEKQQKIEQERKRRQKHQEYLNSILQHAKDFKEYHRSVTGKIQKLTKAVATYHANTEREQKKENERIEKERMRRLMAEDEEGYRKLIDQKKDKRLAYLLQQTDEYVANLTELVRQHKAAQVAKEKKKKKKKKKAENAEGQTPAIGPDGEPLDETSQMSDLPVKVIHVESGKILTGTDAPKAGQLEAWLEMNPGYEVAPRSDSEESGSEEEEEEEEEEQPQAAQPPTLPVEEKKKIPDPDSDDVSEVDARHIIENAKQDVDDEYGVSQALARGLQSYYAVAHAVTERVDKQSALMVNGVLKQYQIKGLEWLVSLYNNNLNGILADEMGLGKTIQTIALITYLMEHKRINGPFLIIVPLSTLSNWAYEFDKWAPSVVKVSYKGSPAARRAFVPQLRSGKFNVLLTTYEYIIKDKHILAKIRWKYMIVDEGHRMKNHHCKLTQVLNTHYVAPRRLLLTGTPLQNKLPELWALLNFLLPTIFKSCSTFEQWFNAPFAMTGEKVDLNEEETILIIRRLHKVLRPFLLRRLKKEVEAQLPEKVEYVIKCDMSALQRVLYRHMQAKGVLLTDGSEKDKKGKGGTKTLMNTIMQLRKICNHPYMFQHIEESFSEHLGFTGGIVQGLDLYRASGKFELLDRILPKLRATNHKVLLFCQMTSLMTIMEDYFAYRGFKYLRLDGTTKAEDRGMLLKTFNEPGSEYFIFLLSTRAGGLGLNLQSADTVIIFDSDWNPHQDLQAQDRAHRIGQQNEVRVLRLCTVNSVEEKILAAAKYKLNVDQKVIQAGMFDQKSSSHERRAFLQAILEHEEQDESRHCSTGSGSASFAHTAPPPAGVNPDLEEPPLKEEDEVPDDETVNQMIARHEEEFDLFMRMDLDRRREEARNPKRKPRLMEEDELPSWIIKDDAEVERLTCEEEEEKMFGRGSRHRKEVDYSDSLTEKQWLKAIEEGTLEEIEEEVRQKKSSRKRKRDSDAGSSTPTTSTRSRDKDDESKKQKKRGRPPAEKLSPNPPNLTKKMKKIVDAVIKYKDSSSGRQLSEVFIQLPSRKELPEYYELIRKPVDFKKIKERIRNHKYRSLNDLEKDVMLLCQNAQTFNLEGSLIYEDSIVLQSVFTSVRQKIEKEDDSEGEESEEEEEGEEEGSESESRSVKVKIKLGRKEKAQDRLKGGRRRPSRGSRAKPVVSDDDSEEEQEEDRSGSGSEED
Method in brief: as §1

Row | Structure (SMILES) | DC50 [1] [nM] | Dmax [1] [%] | DC50 [2] [nM] | Dmax [2] [%]
1 | O=C1CCC(N2Cc3ccc(N4CCOC(CN5CCN(C(=O)N6CCN7c8cc(-c9ccccc9O)nnc8NC[C@H]7C6)CC5)C4)cc3C2=O)C(=O)N1 (stereo partly drawn) [Example 111, 3-(6-(2-((4-((S)-2-(2-hydroxyphenyl)-6,6a,7,8,9,10-hexahydro-5H-pyrazino[1′,2′:4,5]pyrazino[2,3-c]pyridazine-8-carbonyl)piperazin-1-yl)methyl)morpholino)-1-oxoisoindolin-2-yl)piperidine-2,6-dione] | < 10 | 50 to 75 | 10 to 100 | 50 to 75
2 | O=C1CCC(N2C(=O)c3ccc(N4CCC(CN5CCC(CN6CCN7c8cc(-c9ccccc9O)nnc8NC[C@H]7C6)C(F)(F)C5)CC4)cc3C2=O)C(=O)N1 (stereo partly drawn) [Example 260, 5-(4-((3,3-difluoro-4-(((S)-2-(2-hydroxyphenyl)-5,6,6a,7,9,10-hexahydro-8H-pyrazino[1′,2′:4,5]pyrazino[2,3-c]pyridazin-8-yl)methyl)piperidin-1-yl)methyl)piperidin-1-yl)-2-(2,6-dioxopiperidin-3-yl)isoindoline-1,3-dione] | < 10 | 75 to 85 | 10 to 100 | 75 to 85
3 | O=C1CCC(N2C(=O)c3ccc(N4CCC(CN[C@H]5C[C@@H](CN6CCN7c8cc(-c9ccccc9O)nnc8NC[C@H]7C6)C5)CC4)cc3C2=O)C(=O)N1 (stereo partly drawn) [Example 78, 2-(2,6-dioxopiperidin-3-yl)-5-(4-((((1R,3s)-3-(((S)-2-(2-hydroxyphenyl)-5,6,6a,7,9,10-hexahydro-8H-pyrazino[1′,2′:4,5]pyrazino[2,3-c]pyridazin-8-yl)methyl)cyclobutyl)amino)methyl)piperidin-1-yl)isoindolme-1,3-dione] | < 10 | > 85 | < 10 | > 85
4 | CC1(C)CN(CC2CCN(c3ccc4c(c3)C(=O)N(C3CCC(=O)NC3=O)C4=O)CC2)CCC1CN1CCN2c3cc(-c4ccccc4O)nnc3NC[C@H]2C1 (stereo partly drawn) [Example 257, 2-(2,6-dioxopiperidin-3-yl)-5-(4-((4-(((S)-2-(2-hydroxyphenyl)-5,6,6a,7,9,10-hexahydro-8H-pyrazino[1′,2′:4,5]pyrazino[2,3-c]pyridazin-8-yl)methyl)-3,3-dimethylpiperidin-1-yl)methyl)piperidin-1-yl)isoindoline-1,3-dione] | < 10 | > 85 | < 10 | > 85
5 | CC1CC(C(=O)N2CCN3c4cc(-c5ccccc5O)nnc4NC[C@H]3C2)CCN1CC1CCN(c2ccc3c(c2)C(=O)N(C2CCC(=O)NC2=O)C3)CC1 (stereo partly drawn) [Example 265, 3-(6-(4-((4-((S)-2-(2-hydroxyphenyl)-6,6a,7,8,9,10-hexahydro-5H-pyrazino[1′,2′:4,5]pyrazino[2,3-c]pyridazine-8-carbonyl)-2-methylpiperidin-1-yl)methyl)piperidin-1-yl)-1-oxoisoindolin-2-yl)piperidine-2,6-dione] | < 10 | 75 to 85 | 10 to 100 | 75 to 85
6 | CC1(C)CN(c2ccc3c(c2)C(=O)N(C2CCC(=O)NC2=O)C3=O)CCC1CN1CCC(CN2CCN3c4cc(-c5ccccc5O)nnc4NC[C@H]3C2)CC1 (stereo partly drawn) [Example 88, 2-(2,6-dioxopiperidin-3-yl)-5-(4-((4-(((S)-2-(2-hydroxyphenyl)-5,6,6a,7,9,10-hexahydro-8H-pyrazino[1′,2′:4,5]pyrazino[2,3-c]pyridazin-8-yl)methyl)piperidin-1-yl)methyl)-3,3-dimethylpiperidin-1-yl)isoindoline-1,3-dione] | < 10 | > 85 | < 10 | > 85
7 | O=C1CCC(N2C(=O)c3ccc(N4CCC(CN5CCC(O)(CN6CCN7c8cc(-c9ccccc9O)nnc8NC[C@H]7C6)CC5)CC4)cc3C2=O)C(=O)N1 (stereo partly drawn) [Example 38, 2-(2,6-dioxopiperidin-3-yl)-5-(4-((4-hydroxy-4-(((S)-2-(2-hydroxyphenyl)-5,6,6a,7,9,10-hexahydro-8H-pyrazino[1′,2′:4,5]pyrazino[2,3-c]pyridazin-8-yl)methyl)piperidin-l-yl)methyl)piperidin-1-yl)isoindoline-1,3-dione] | < 10 | > 85 | < 10 | > 85
